Experimental findings from patent publication US20240277617A1, “NANOTECHNOLOGICAL PLATFORM BASED ON POLYURETHANE/POLYUREA CHEMISTRY TO FURNISH WATER-OIL-WATER MULTI WALLED AND FUNCTIONALIZABLE NANOCAPSULES AND THEIR PREPARATION PROCESS” (ECOPOL TECH SL, priority 2021, published 2024) are described below.

For data set [1], the system named is A375 Human Melanoma cell line. Nature of the data set: In vivo fluorescence imaging biodistribution in subcutaneous tumor mice. Particulars: i.v. at day 14 post-tumor challenge; from 3 to 9-days after NCs injection.
Experimental: A model of immunodepressed mice have been used to conduct this experiment. Female NSG mice (9 weeks old, Charles River) were challenged by subcutaneous (s.c). injection of A375 Human Melanoma cell line (1×10^6) cells on the right flank with a 23-gauge needle. Amphoteric ICG-NCs and cationic ICG-NCs were administered i.v. at day 14 post-tumor challenge. PBS and ICG free was injected to control groups. Fluorescence was monitoring by in vivo imaging system (IVIS; Perkin Elmer, Waltham, MA, USA) using excitation/emission wavelength of 780 nm/845 nm.
A short description of data set [2]: Acute toxicity analysis (haematological and biochemical parameters) after i.v. administration. More on the design: species or system BALB/C mice. Particulars: mouse, in vivo, iv. As for the experimental part: Encapsulated non-loaded NCS nanocapsules (cationic and amphoteric nanocapsules) were i.v. administered to female BALB/C mice (8 weeks old; Charles River) at three different doses. Blood and serum samples were obtained at 24 h post-administration for acute toxicity analysis (SBCV and SHCV, Universidad Autónoma de Barcelona).
Haematological parameters analysed in blood included white blood cells (WBC) count, red blood cells (RBC) count, haemoglobin (HGB), red blood cell specific volume (HCT), mean corpuscular volume (MCV), mean corpuscular haemoglobin (MCH), mean corpuscular haemoglobin concentration (MCHC), platelet (PLT), lymphocytes (LYMPH), monocytes (MONO), neutrophils (NEU), eosinophils (EO), and basophils (BASO).
Biochemical parameters detected in serum included albumin, alanine aminotransferase (ALT), aspartate aminotransferase (AST), total bilirubin levels (TBIL), creatinine (CREA), gamma-glutamyl transferase (GGT), potassium, total proteins, sodium, and urea.
Encapsulated or free R848 was i.v. administered to female BALB/C mice (8 weeks old; Charles River) at three different doses. Blood and serum samples were obtained at 24 h post-administration for acute toxicity analysis (SBCV and SHCV, Universidad Autónoma de Barcelona).

For the molecule `CC1(C)C(/C=C/C=C/C=C/C=C2\N(CCCCS(=O)(=O)[O-])c3ccc4ccccc4c3C2(C)C)=[N+](CCCCS(=O)(=O)[O-])c2ccc3ccccc3c21.[Na+]` [ICG, Indocyanine Green], the “fluorescence signal / accumulation in tumor locations” value in data set [1] is reported as “low”. In the case of `CCOCc1nc2c(N)nc3ccccc3c2n1CC(C)(C)O` [Sample R848, Resiquimod], in data set [2], the “biochemical parameters in serum with respect to untreated groups” value is “No significant differences” and the “haematological parameters with respect to untreated groups” value is “No significant differences”.
